Assay results as given in patent publication US10125160B1, “Method of making cobalt and platinum based surfactants and using for cancer therapy” (Umm Al-Qura University, priority 2015, dated 2018).

Tests used:
[1] = Surface tension and critical micelle concentration (Du-Nouy tensiometer); type: physicochemical; set-up: PC20: unit not given here
Procedure: Surface tension values of the synthesized complex solutions (parent complex, parent complex with Co, parent complex with Pt) were obtained at 30îC using Du-Nouy Tensiometer (Kruss K6 Type 4851) with a platinum ring. Apparent surface tension was measured about five times for the sample within 2 min interval between each reading. The averages of five determinations were plotted against −log C without any correction. The critical micelle concentration values were determined from the plot of surface tension versus concentration.
Table 4 summarizes the surface-active parameters such as critical micelle concentration (CMC), γCMC, and pC20 (the surfactant concentration required to reduce the surface tension of the solvent by 20 mN/m) determined from the curves of FIG. 1. Values of Γmax (the surface excess concentration of surfactant) and Amin (interfacial area occupied by the surfactant molecules) were calculated using the Gibbs adsorption equation:
Where (δγ/δ log C) is the maximum slope in each case; T is absolute temperature; R=[…] and N is Avogadro's number. The standard free energy of micellization (ΔG°mic) is calculated from the equation: ΔG°mic=RT in CMC (Eq 7)
The standard free energy of adsorption (ΔG°ads) is calculated according to the following equation: ΔG°ads=ΔG°mic−ΠCMCAmin (Eq 8)

HEPG2 (liver carcinoma) = test: Potential cytotoxicity by SRB assay, HEPG2; type: cell-based, human
Procedure: (§1) Potential cytotoxicity of the complex was tested using the method of Skehan et al. (1990). The tumor cell lines: MCF7 (Breast carcinoma), HEPG2 (liver carcinoma), (10^4 cells/well) had been supplied from National Cancer Institute Cairo Egypt, were plated in 96-multiwell plat for 24 h before treatment with the compounds to allow attachment of cell to the wall of the plate.
(§2) Different concentrations of the complexes under test (0, 1, 2.5, Sand 10 μg/ml) were added to the cell-monolayer (parent complex, parent complex with Co, parent complex with Pt). Triplicate wells were prepared for each individual dose. Monolayer cells were incubated with the complex for 48 h at 37 C° and in atmosphere of 5% CO2. After 48 h, Cells were fixed, washed and stained with Sulfurhodamine B stain. Excess stain was washed with acetic acid and attached stain was recovered with Tris EDTA buffer. Color intensity was measured in an ELISA reader. […]
(§3) Cobalt and Platinum benzidinium hydrogen selenite complexes as well as their parent were investigated as potential selective, anticancer drugs. […] The results of the cytotoxic activity on human tumor cell lines were determined according to the dose values of drug exposure for cell lines to reduce survival to 50% (Ic50). The experimental results recorded in Table (5) and plots of surviving fraction versus concentration in μg in FIGS. 2, 3).

MCF7 (Breast carcinoma) = test: Potential cytotoxicity by SRB assay, MCF7; type: cell-based, human
Procedure: as §1, §2, §3

[2] = calculated using Gibbs adsorption equation
[3] = SRB assay, 48 h, dose reducing survival to 50%
[4] = in vitro on the tumor cell line investigated

CCCCCCCCCC(=O)Nc1ccc(-c2ccc(N)cc2)cc1.O=[Se](O)O [parent, N-decanoylbenzidinum hydrogen selenite]
ΠCMC [1]: 33 mN/m | Amin (interfacial area occupied by surfactant molecules) [1, 2]: 1.80 nm^2 | Γmax × 10^−11 (surface excess concentration) [1, 2]: 9.1 × 10^−11 Mole/cm^2 | ΔGmic (standard free energy of micellization) ([1]; calculated, Eq 7): −27.64 KJ\mol | ΔGads (standard free energy of adsorption) ([1]; calculated, Eq 8): −64.21 KJ\mol | CMC × 10^−3 (critical micelle concentration) ([1]; from plot of surface tension versus concentration): 3.76 × 10^−3 | γCMC ([1]; surface tension at CMC): 39 mN/m | PC20 ([1]; surfactant concentration required to reduce surface tension of solvent by 20 mN/m): 3.50 | HEPG2 (IC50) (HEPG2 (liver carcinoma); [3]): −Ve | cytotoxic activity in words, HEPG2 (HEPG2 (liver carcinoma); [4]): no effect | MCF7 (IC50) (MCF7 (Breast carcinoma); [3]): −Ve | cytotoxic activity in words, MCF7 (MCF7 (Breast carcinoma); [4]): no effect
